How the values were obtained:
Assay type in all cases: in vivo, rhesus macaques
pSMAD2/3 = assay: PhosphoSMAD2/3 over total SMAD2/3 in PBMC (ELISA); details: 2.5 or 5 mg/kg twice daily, 9 days
Method: (§1) Eight naïve macaques (FIG. 9) were used to collect plasma and PBMC for PK/PD studies. 4 macaques received galunisertib (2.5 mg/kg, n=2 or 5 mg/kg, n=2) once and blood was collected at 1 hr, 3 hr and 6 hrs, 24 hrs and 48 hrs. 4 macaques received galunisertib (2.5 mg/kg, n=2 or 5 mg/kg, n=2) twice daily for 9 days and samples were collected 1 hr, 3 hr and 8 hrs after administration on day 1 and on day 9 right before and 1 hr and 3 and 6 hrs after the last administration. Plasma concentrations of galunisertib were measured by IMSERC (Integrated Molecular Structure Education and Research Center) utilizing liquid chromatography mass spectrometry (Shimadzu Kyoto, Japan ultra-high performance liquid chromatography—UHPLC—system and SCIEX Framingham, MA Qtrap 6500+ triple quadrupole mass spectrometer). […] All samples and standards were processed in duplicate with the average area under the curve (AUC) being used for quantitation reporting. […] The resulting limit of quantitation (LOQ) was 1.0 ng/ml.
For PD studies, the levels of phosphorylated SMAD2/3 were measured using the PathScan PhospoSMAD2/3 ELISA kit (Cell Signaling Technology, CST) over the levels of Total SMAD2/3 in cell lysates Total SMAD ELISA Kit (Cell Signaling Technology, CST) normalized on protein content.

SIVmac251 or SIVmac239 = assay: Tissue cell-associated vRNA/vDNA, colorectal biopsies and LN FNA
Method: Blood was collected in EDTA tubes and plasma was separated by density gradient centrifugation and used for the determination of plasma VL by SIVgag qRT-PCR at NIRC or at Leidos (Quantitative Molecular Diagnostics Core, AIDS and Cancer Virus Program Frederick National Laboratory). Tissue VL from snap frozen colorectal biopsies and LN FNA were performed at Leidos (A14X004, A14X005 and A14X013) as described in (78) or, for the remaining macaques and from PBMC of all macaques they were performed as described in (77).

Tregs and Tfh cells = assay: Circulating Treg and Tfh frequencies by flow cytometry
Method: Peripheral blood mononuclear cells (PBMCs) collected from 8 macaques at 7 time points spanning Cycle 1 to Cycle 4 (refer to Table 5) were employed for high-parameter flow cytometry staining. Cells from before and after cycle 1 and at the end of cycle 3 were used for Tfh/Treg assay. In both cases, cell fixation and permeabilization for intracellular staining were carried out using the FoxP3 Staining Buffer set (Thermo Fisher Scientific, Carlsbad, CA). The high-dimensional panel consisted of antibodies outlined in Table 4, catering to requirements for surface and intracellular staining, as well as viability assessment. Each antibody was individually titrated to ensure optimal staining conditions. Data acquisition was performed using the FACSymphony A5.2 Spectral Analyzer. Following data collection, spectral compensation was implemented utilizing FlowJo™ v10.8 Software (BD Life Sciences). 60,000 live singlet lymphocytes from each of samples was downsampled to prevent disproportionate representation by samples with higher cell counts, ensuring balanced subsequent analysis. To mitigate batch effects, we utilized the swiftReg Neighbor-Dependent Cluster Registration (NDCR) method available within the SWIFT package(112). This method effectively addresses batch variations while preserving the inherent biological diversity. […] Furthermore, we implemented the Peak Extraction and Cleaning Oriented Quality Control (PeacoQC) procedure (138) in FlowJo™ v10.8 to eliminate low-quality events arising from potential issues like clogs, speed fluctuations, and slow sample uptake. FlowSOM FlowJo plugin was employed for automated cell population identification, preceded by the utilization of Phenograph to obtain optimal cluster numbers for dimensional reduction, for the merged data of All Time points and BC1 vs AC4 merged data respectively. The Supplementary FIG. 29A heatmap illustrates the median fluorescence intensity (MFI) values for all markers across all clusters. […]

[1] = Clinical pathology (chemistry, hematology) and adverse events
Method: 1 mL of blood was collected in EDTA tubes and tested for a standard hematology panel (complete blood count—CBC) using a BECKMAN COULTER DxH600 hematology analyzer. An additional 1 mL of blood was collected into a SST tube, centrifuged to isolate serum, and analyzed for a comprehensive serum chemistry panel using a Siemens's Dimension Clinical Chemistry Analyzer.

[2] = Galunisertib plasma pharmacokinetics by LCMS
Method: as §1, with “spectrometer). All standard, quality controls (QC) and experimental samples were prepared and ran in duplicate using 20 μL of plasma (spiked with galunisertib if a standard or QC) adding 15 μL of 8% phosphoric acid solution, 200 μL of acetonitrile (to crash plasma proteins) spiked with tramadol as an internal standard. The standard curve was prepared as a 10-point curve from 1.0 to 1,000 ng/ml with three QCs.” for “spectrometer).”

TGF-β = assay: Total TGF-β in plasma by ELISA; details: baseline vs W1/2
Text: FIGS. 16A-16B. […] (FIG. 16A) The concentration of total TGF-β in the plasma before and after galunisertib as detected by ELISA is shown. Wilcoxon matched-pairs test was used to compare BL with W1/2 data, Significant p-value of α<0.05 (*) is shown. (FIG. 16B) No correlation is present between the concentration of TGF-β before treatment in blood and the change in Gut-SUVTot in each animal after galunisertib treatment (p=0.199; Person R=0.304).

Cc1cccc(-c2nn3c(c2-c2ccnc4ccc(C(N)=O)cc24)CCC3)n1 [galunisertib, Galunisertib]
reduction in pSMAD2/3 over total SMAD in PBMC (pSMAD2/3): ~25%
ratio CA-RNA/DNA (SIVmac251 or SIVmac239; at least 2 macaques (A14X027 and A14X064)): increased substantially
increase in cell associated vRNA (CA-RNA) (SIVmac251 or SIVmac239; colorectal biopsies and LN FNA, before vs after treatment): 1 to 3 log
circulating Tfh (CXCR5+PD1+) within total and central memory CD4+ T cells (Tregs and Tfh cells; end of treatment): lower
frequency of CD4+ Tregs (CD25high FoxP3+) and CD8+ Tregs (Tregs and Tfh cells; remained higher until end of 3rd cycle): increased after the first cycle
expression of CD39 on total and central memory CD4+ T cells (Tregs and Tfh cells; rhesus monkey, in vivo): lower
clinical variables (chemistry and hematology) ([1]; before, during and after therapy): No significant changes
adverse events ([1]; macaque studies): no adverse events
concentration in blood of macaques lower than average concentration in human plasma after similar dosing ([2]; macaque vs human plasma): at least 10 fold
PK in rhesus macaques compared with humans ([2]; naïve animals, oral 2.5 or 5 mg/kg): substantially lower than in humans
levels of TGF-β in blood after treatment (TGF-β): increases in the levels of TGF-β

From patent US20240197712A1, “TGF-BETA INHIBITION FOR IMMUNODEFICIENCY VIRUS REACTIVATION FROM LATENCY, ENHANCEMENT OF IMMUNODEFICIENCY VIRUS-SPECIFIC RESPONSES AND IMMUNODEFICIENCY VIRUS CURE” (Northwestern University, priority 2022, published 2024)
